A melting point compilation (Tetko et al.; mined from patent text by program, amines drawn as free bases though some values may be those of a salt)

melting point [°C] | Compound
96 to 97 | CCCc1nn(-c2ccc(C(F)(F)F)cn2)cc1CCCCOc1cccc(CC(=O)O)c1
120 to 121 | COC(=O)c1ccc2cc(CO)ccc2c1
178 to 181 | CN(C)CCOC(=O)c1ccc(CCN2CC=C(c3c[nH]c(-c4ccc(F)cc4)c3-c3ccncc3)CC2)cc1
203 | O=C(O)CC1(c2ccc(Cl)c(Cl)c2)CCC(=O)NC1=O (stereo not drawn)
30 | C=CCC(N)c1cccc(OC)c1 (stereo not drawn)
108 to 110 | O=S(=O)(Nc1ccc2c(OCc3ccc(C4CCCCC4)cc3)cccc2c1)C(F)(F)F
52 to 53 | CCOC(=O)c1ccc(OCCCCCCCCC#CCCCCOc2ccc(Cl)cc2)cc1
150 to 152 | CC(CCN(C)c1ccccc1)NCC(O)c1ccc(O)c(C(N)=O)c1 (stereo not drawn)
139 to 141 | NC(=NCCc1ccccn1)Nc1ccc(Br)cn1
145 to 146 | CCOC(=O)Cc1cccc(-c2nc(COc3ccc(COc4nn(-c5ccccc5)cc4C=O)cc3OC)c(C)o2)c1
104 to 105 | CC(=O)c1ccc(-c2cccnc2)s1
145 to 146 | CC(C)CC1(C(CCN2C(=O)c3cccc(F)c3C2=O)C(=O)NO)CCN(CCc2ccccc2)C1=O (stereo not drawn)
42 | CCn1ncnc1COc1nn2c(-c3c(F)ccc(F)c3F)nncc2c1C(C)(C)C
122 | CN(C)S(=O)(=O)NC1CCC(CCN2CCC(c3cccc4c3CCO4)CC2)CC1 (stereo not drawn)
134 to 135 | CCOc1ccc(CC(=O)O)cc1OCCCc1cn(-c2ccc(C(F)(F)F)cn2)nc1C1CCCCC1
131 to 133 | N#Cc1cnc2cc(C#CCCCN3CCOCC3)ccc2c1Nc1ccc(Cl)cc1Cl
99 to 102 | Cc1cc(N2CCCC2)c2ccc(I)cc2n1
115 to 117 | COc1ccc(-c2nc(Sc3ccccc3)n(C)c2-c2ccc(OC)cc2)cc1
257 to 259 | O=C(O)CN[C@H]1CCN(c2ccc3c(NC(=O)CC4CCCCC4)c(Cl)ccc3n2)C1
84 to 85 | CC(C(=O)CC#N)c1ccc(-c2ccccc2)c(F)c1 (stereo not drawn)
110 to 112 | O=c1c2c(Cl)cc(Cl)cc2nc2n1CCCCC2
94 to 95 | O=C(O)CCc1cccc(OCc2cn(-c3ccc(C(F)(F)F)cn3)nc2C2CCCCC2)c1
109 | CC(C)c1nn(C(=O)NC2CCCC2)c(=O)n1N
48.5 to 49.7 | Cc1oc(-c2ccccc2)nc1CCOc1ccc(CC(C(=O)O)C(=O)N(C)C)cc1 (stereo not drawn)

melting point [°C] | Compound
74 | COC(COc1ccc2oc(C(=O)O)c(C)c2c1)OC
283 to 285 | Cn1cnc2nc(-c3ccc(Cl)cc3)nn2c1=S
68 to 70 | CCCCCCCCCCCCNC(=O)n1nc(Oc2ncc(C(F)(F)F)cc2Cl)c(Cl)c1C
102 to 110 | COc1cc(OCCn2cccc2)ccc1/C=C/c1cc(/C=C/c2ccc3cc[nH]c3c2)n[nH]1
165 to 166 | O=c1oc2ccc(-c3ccc(F)cc3F)cc2c(=O)n1-c1cccc(C(F)(F)F)c1
138 to 139 | CCC(=S)NC[C@H]1CN(c2ccc(N3CCOCC3)c(F)c2)C(=O)O1
102 to 104 | O=C(Oc1ccccc1)c1cc(Cl)c2ccccc2c1O
186 to 190 | CCN(CC)[C@@H]1CCC[C@H]1Nc1ccnc2cc(Cl)ccc12 (racemic)
152 to 154 | CCOC(=O)Cc1csc2nc(C(=O)OC)cn12
154 | C[C@H](CN(O)C(N)=O)NC(=O)c1cccc(Oc2ccccc2)c1
93 to 95 | CCN1C=C(N)N=C(C2CC2)c2ccccc21
183 to 192 | Clc1ccc2ncc3nc(Br)n(-c4ccccc4Cl)c3c2c1
218 to 219 | Oc1cnc2c(c1)CCC(c1ccc(Cl)c(Cl)c1)O2 (stereo not drawn)
114 to 115 | Cc1c(O)cccc1C(=O)N[C@@H](Cc1ccccc1)[C@H](O)C(=O)N1CSC(C)(C)[C@H]1C(=O)N[C@@H](C)c1ccccc1
169 to 171 | CC(C)(C)c1nc(C(N)=S)ncc1O
98 to 104 | CC(C)(C)NC(=O)[C@@H]1CCCN1C(=O)[C@@H](O)[C@H](Cc1ccccc1)NC(=O)[C@H](CC(N)=O)NC(=O)COC1CCN(C(=O)OCc2ccccc2)CC1
99 to 100 | Cc1cccc(NC(=O)CN2CCN(c3ncccc3C#N)CC2)c1
101 to 102 | O=C(OCc1ccc(OCc2ccc(Cl)cc2)cc1)c1cccnc1
218 to 220 | CSc1ccc(-c2cc(-c3nc4ccccc4c(=O)n3-c3ccccc3)sc2N2CCOCC2)cc1
175 to 179 | CCCNC1=NS(=O)(=O)c2c(sc(C)c2C#N)N1C(=O)OCC
186 to 187 | Nc1nc2cc(OCc3ccccc3)ccc2c2c1nc(CCCCNC(=O)Nc1ccccc1)n2CCOc1ccccc1
48 to 49 | CCCCCC(=O)c1ccc(O)c(C(=O)O)c1
92 to 94 | CCC(=O)OC(C#N)C(C#N)c1ccc(OC)c(OC)c1 (stereo not drawn)
250 to 253 | CN1CCN(C(=O)c2cc(-c3ccccc3)c(=O)[nH]c2-c2c(Cl)cccc2C#N)CC1

melting point [°C] | Compound
> 250 | Cc1ccc(F)c2c1NC(=O)C21COc2cc3c(cc21)CCO3 (stereo not drawn)
140 to 142 | COC(=O)CC[C@H]1CC[C@H](NC(=O)N(NC=O)c2ccc(C#N)cc2)CC1
223 to 224 | COCc1nc2c(OC)c3c(=O)n(C)c(COC)nc3c(OC)c2c(=O)n1C
< 50 | COC(=O)C1=C(C)NC(C)=C(C(=O)OCCCOc2ccc(CCOC3CCCCO3)cc2)C1c1cccc([N+](=O)[O-])c1 (stereo not drawn)
115 to 116 | CCC(CC)O[C@@H]1C=C(C(=O)O)C[C@H](CC2CO2)[C@H]1NC(C)=O (stereo partly drawn)
141 to 142 | CC(=Cc1c2n(c3ccncc13)CCC2)[N+](=O)[O-]
163 to 164 | CN(C)c1ccc(N(c2ccccc2)C2(c3ccc(N(C)C)cc3)OC(=O)c3cc(N(C)C)ccc32)cc1 (stereo not drawn)
148 to 158 | COC(=O)C1=C(C)NC(C)=C(C(=O)OCC(C)C)C1c1cccc2nonc12 (stereo not drawn)
172 to 175 | CCOC(=O)C1CCCN2CCC3c4cc(Cl)ccc4N(N)C3C12 (stereo not drawn)
165 | Cc1nc(-c2ccc(O)cc2)c(C(C)C)s1
115 to 116 | BrC1Cn2cccc2Sc2ccccc21 (stereo not drawn)
141 to 142 | Nc1ccc([N+](=O)[O-])cc1CO
62 to 62.5 | Brc1ccc(Cc2ccc(Br)cc2)cc1
91 to 93 | COC(=O)C1(NC(=O)Cc2cc(C)ccc2C)CCN(OC)CC1
141 | COC1(c2cc(F)cc(Sc3ccc(C(C)=O)cc3)c2)CCOCC1
216 to 217 | Cn1ncc2c1-c1c(Oc3ccc(OCc4ccc(Cl)cc4)cc3)sc(C(N)=O)c1CC2
240 to 242 | O=C(O)CCN1C(=O)c2ccc(C(=O)O)cc2C1=O
136 to 137 | COC(=O)c1nc(-c2ccccc2)n(-c2ccc(Cl)cc2)n1
119 to 120 | CCSc1cc(C)nc(SCC)c1NC(=O)CSc1nc2ccccc2s1
188 | COc1ccc([C@@H]2Sc3cc(Oc4ccc5c(c4)OCO5)ccc3NC(=O)[C@@H]2O)cc1
158 to 161 | O=C(O)C(c1ccccc1)n1nnc(C(c2ccccc2)c2ccccc2)n1 (stereo not drawn)
234 to 236 | O=C(O)Cc1cccc2c1NC(=O)C2
90 to 95 | CCc1c(C(=O)NCCCCCCC(=NOCCN)c2ccc(C(F)(F)F)cc2)nc(-c2ccccc2Cl)n1-c1ccc(Cl)cc1
234 to 238 | Oc1ccc(Sc2cccc(O)n2)cc1

melting point [°C] | Compound
168 to 169 | Cc1cc(C)c2c(c1C)OC(=O)C2c1ccc(Br)cc1 (stereo not drawn)
186 | Cc1cc2c(cc1Cl)NC(=O)C2c1ccccc1Cl (stereo not drawn)
163 to 165 | COc1ccc(C=Cc2oc3ccc(Br)cc3c2C(C)=O)cc1
129 to 130 | COc1cccc(C(=O)OCC2(COC(=O)c3cccc(OC)c3)c3ccccc3-c3ccccc32)c1
85 to 87.5 | O=C(OCc1cc(OCCCBr)cc(OCCCBr)c1)c1ccccc1
218 to 220 | O=c1cnc2c(NC(CO)CO)nc(SCc3cccc(Cl)c3F)nc2[nH]1
170 to 175 | O=CNC(C(=O)O)c1ccccc1 (stereo not drawn)
120 to 121 | COCCCNS(=O)(=O)NC(=O)/C(C)=C/c1ccc(OC(C)C)cc1Oc1ncc(C(F)(F)F)cc1Cl
65 to 66 | COc1ccc(N(C)C(C)=O)cc1C
101 to 102 | CCCCCCNC(=O)c1cnc(Cl)nc1
257 to 260 | CC(=O)NC[C@H]1CN(c2ccc(C(=O)c3cnc4ncccn34)cc2)C(=O)O1
210 to 212 | CN(CCCNC(=O)c1cccc2nc3ccc(Cl)cc3nc12)CCCNC(=O)c1cccc2nc3ccc(Cl)cc3nc12
216 to 218 | NNC(=O)c1ccc2oc3ccccc3c2c1
187 to 188 | CN1CCCC1CNC(=O)c1cc(S(N)(=O)=O)cc2c1OCCO2 (stereo not drawn)
149 to 150 | CCOC(=O)/C=C/c1cn(CC)nc1OCc1ccc(OCc2nc(-c3ccco3)oc2C)c(OC)c1
66 to 68 | CCCCc1ccc(NC(=O)CN(C)C)c(N)c1
123 to 125 | O=C(O)C1CC(=O)N(Cc2ccccc2)C1C(=O)N(Cc1ccccc1)Cc1ccccc1 (stereo not drawn)
73 to 74 | Cc1ccccc1OCC(O)CNCCCOc1ccccc1 (stereo not drawn)
244 to 245 | Cc1oc(C=Cc2ccc(Cl)cc2)nc1C(=O)O
131 to 132 | CCOCc1nc2c(N)nc3cc(OCCOCc4ccccc4)ccc3c2n1CC(C)(C)O
206 to 208 | NC(=O)c1ccc(-c2ccc3nnn(Cc4cc5cccnc5cc4F)c3n2)cc1F
118 | O=C(O)c1ccccc1CNC(=O)C1Cc2ccccc2N1S(=O)(=O)c1ccc(-c2cccc(C(F)(F)F)c2)cc1 (stereo not drawn)
206 to 209 | COc1cc(Nc2c(C#N)cnc3cc(-c4csc(CN5CCN(C)CC5)c4)ccc23)c(Cl)cc1Cl
100 to 101 | OC1(c2ccc(F)cc2)CCN(CCCc2noc3cc(F)ccc23)CC1

Compound | melting point [°C]
COCCOC12CC(CO)CN(C)C1Cc1c[nH]c3cccc2c13 (stereo not drawn) | 188 to 193
CC(C)CCN1C(=O)C(NC(=O)Oc2ccccc2)C(=O)N(c2ccccc2F)c2ccccc21 (stereo not drawn) | 226 to 227
